Source: the Kinase Knowledgebase extract (Sharma et al. 2016)

Target: CDK2 (UniProt P24941)
Assay: Enzyme Assay
Settings: concentration not given here

inhibition | Structure (SMILES)
100% | CC(C)c1cc(C(N)=O)c(NC(=O)c2ccccc2F)s1
100% | Cc1cc(C)cc(CC(=O)Nc2sc(Cc3ccccc3)cc2C(N)=O)c1
100% | Cc1ccc(S(=O)(=O)NCC(=O)Nc2sc3c(c2C(N)=O)CCN(C)C3)cc1
100% | CN(C)CCCC(=O)Nc1sc(Cc2ccccc2)cc1C(N)=O
100% | Cc1sc(NC(=O)Cc2ccc3c(c2)OCO3)c(C(N)=O)c1C
100% | Cc1sc(NC(=O)c2cccc(Cl)c2Cl)c(C(N)=O)c1C
100% | Cc1sc(NC(=O)c2ccccc2-n2cccc2)c(C(N)=O)c1C
100% | NC(=O)c1cc(-c2ccccc2)sc1NC(=O)Cc1ccccc1O
100% | CC(=O)CC(=O)N(CC(N)=O)c1sc(-c2ccccc2)cc1C(N)=O
100% | Cc1sc(NC(=O)Cc2c[nH]c3ccccc23)c(C(N)=O)c1C
100% | CN1CCc2c(sc(NC(=O)Cc3ccccc3I)c2C(N)=O)C1
100% | NC(=O)c1cc(-c2ccccc2)sc1NC(=O)CCc1cccs1
100% | CC(=O)Nc1ccc(C(=O)Nc2sc(C(C)c3ccccc3)cc2C(N)=O)cc1 (stereo not drawn)
100% | CC(C)c1cc(C(N)=O)c(NC(=O)CCc2ccccc2)s1
100% | Cc1csc(NC(=O)CNC(=O)/C=C/c2ccco2)c1C(N)=O
100% | Cc1sc(NC(=O)c2c(Cl)cccc2Cl)c(C(N)=O)c1C
100% | Cc1sc(NC(=O)c2nc3ccccc3nc2O)c(C(N)=O)c1C
100% | CCCC(Nc1sc(Cc2ccccc2)cc1C(N)=O)C(=O)NC(N)=O (stereo not drawn)
100% | Cc1ccc(S(=O)(=O)CC(=O)Nc2sc3c(c2C(N)=O)CCN(C)C3)cc1
100% | NC(=O)c1cc(Cc2ccccc2)sc1NC(=O)COc1ccc(O)cc1
100% | CC(=O)NC(C(=O)Nc1scc(C)c1C(N)=O)c1ccccc1 (stereo not drawn)
100% | CCCN(C(=O)/C=C\C(N)=O)c1sc(-c2ccccc2)cc1C(N)=O
100% | CC(=O)NCCCCCC(=O)Nc1sc(C(C)c2ccccc2)cc1C(N)=O (stereo not drawn)

inhibition | Structure (SMILES)
100% | Cc1csc(NC(=O)CCc2nc3ccccc3[nH]2)c1C(N)=O
100% | Cc1sc(NC(=O)CCCC(=O)c2ccccc2)c(C(N)=O)c1C
100% | COc1cccc(C(=O)Nc2sc(-c3ccccc3)cc2C(N)=O)c1
100% | Cc1csc(NC(=O)Cc2c(C)[nH]c3ccccc23)c1C(N)=O
100% | NC(=O)c1cc(-c2ccccc2)sc1NC(=O)Cc1ccc(F)cc1
100% | CN1CCc2c(sc(NC(=O)Cc3ccc(S(C)(=O)=O)cc3)c2C(N)=O)C1
100% | NC(=O)c1cc(-c2ccccc2)sc1NC(=O)Cc1ccccc1F
100% | Cc1csc(NC(=O)c2cccc(S(C)(=O)=O)c2)c1C(N)=O
100% | CCN(CC)CCC(=O)Nc1sc(C)c(C)c1C(N)=O
100% | COc1cccc2cc(C(=O)Nc3sc(C)c(C)c3C(N)=O)oc12
100% | Cc1sc(NC(=O)c2ccc(-n3cccc3)cc2)c(C(N)=O)c1C
100% | NC(=O)c1c(NC(=O)c2ccccc2)sc2c1CCCC2
100% | Cc1sc(NC(=O)c2cccc(C(F)(F)F)c2)c(C(N)=O)c1C
100% | Cc1csc(NC(=O)CCCc2cccs2)c1C(N)=O
100% | CC1(C)CC(=O)C=C(C(=O)Nc2sc(Cc3ccccc3)cc2C(N)=O)O1
100% | COc1ccc(Cl)cc1C(=O)Nc1sc(C)c(C)c1C(N)=O
100% | CN1CCc2c(sc(NC(=O)CCS(=O)(=O)c3ccccc3)c2C(N)=O)C1
100% | CC(=O)c1ccccc1C(=O)Nc1sc(-c2ccccc2)cc1C(N)=O
100% | Cc1nc2cc(C(=O)Nc3sc(C)c(C)c3C(N)=O)ccc2[nH]1
100% | NC(=O)c1cc(-c2ccccc2)sc1NC(=O)Cc1cccc(O)c1
100% | Cc1sc(NC(=O)c2coc3ccccc3c2=O)c(C(N)=O)c1C
100% | Cc1sc(NC(=O)Cn2cc(C)c(=O)[nH]c2=O)c(C(N)=O)c1C

Continued, compound first:

Structure (SMILES) | inhibition
NC(=O)c1cc(Cc2ccccc2)sc1NC(=O)/C=C\c1cccc(O)c1 | 100%
CC1NC(=O)NC1CCCCCC(=O)Nc1sc2c(c1C(N)=O)CCN(C)C2 (stereo not drawn) | 100%
NC(=O)c1cc(Cc2ccccc2)sc1NC(=O)c1c[nH]cn1 | 100%
CC(c1ccccc1)c1cc(C(N)=O)c(NC(=O)c2cccc(Cl)c2O)s1 (stereo not drawn) | 100%
CC(c1ccccc1)c1cc(C(N)=O)c(NC(=O)c2cc3ccccc3n2C)s1 (stereo not drawn) | 100%
NC(=O)c1cc(Cc2ccccc2)sc1NC(=O)c1cccc2[nH]ccc12 | 100%
COc1ccc2[nH]c(C)c(CC(=O)Nc3sc4c(c3C(N)=O)CCN(C)C4)c2c1 | 100%
CC(c1ccccc1)c1cc(C(N)=O)c(NC(=O)c2cnnc3ccccc23)s1 (stereo not drawn) | 100%
NC(=O)c1c(NC(=O)c2c[nH]cn2)sc2c1CCCC2 | 100%
Cc1cc(C)cc(C(=O)Nc2sc(C(C)C)cc2C(N)=O)c1 | 100%
CC(C)=CC(=O)Nc1sc2c(c1C(N)=O)CCCC2 | 100%
CC(c1ccccc1)c1cc(C(N)=O)c(NC(=O)c2cc(Cl)ccc2O)s1 (stereo not drawn) | 100%
NC(=O)c1cc(Cc2ccccc2)sc1NC(=O)c1cc2ccccc2[nH]1 | 100%
COc1ccc(OC)c(/C=C\C(=O)Nc2scc(C)c2C(N)=O)c1 | 100%
COc1cc(C(=O)Nc2sc3c(c2C(N)=O)CCN(C)C3)cc(OC)c1OC | 100%
NC(=O)c1cc(-c2ccccc2)sc1NC(=O)c1ccccc1Cl | 100%
CCC(N)C(=O)N(C(N)=O)c1sc(C(C)C)cc1C(N)=O (stereo not drawn) | 100%
CN1CCc2c(sc(NC(=O)c3cc(O)c4ccc(Br)cc4n3)c2C(N)=O)C1 | 100%
CC(c1ccccc1)c1cc(C(N)=O)c(NC(=O)C2=CN(C)CCC2)s1 (stereo not drawn) | 100%
CN1CCc2c(sc(NC(=O)c3cc4cc(Cl)ccc4[nH]3)c2C(N)=O)C1 | 100%
CC(c1ccccc1)c1cc(C(N)=O)c(NC(=O)c2ccc3ncccc3c2)s1 (stereo not drawn) | 100%
CCCN(CCC)C(=O)[C@H](C)Nc1sc(C(C)c2ccccc2)cc1C(N)=O (stereo partly drawn) | 100%
CC(C)=NOC(C)C(=O)Nc1sc(C(C)C)cc1C(N)=O (stereo not drawn) | 100%

Structure (SMILES) | inhibition
CN(C)c1ccc(C(=O)Nc2sc(Cc3ccccc3)cc2C(N)=O)cc1 | 100%
CN1CCc2c(sc(NC(=O)c3ccc(-c4ccc(Cl)cc4)o3)c2C(N)=O)C1 | 100%
CC(C)c1cc(C(N)=O)c(NC(=O)/C=C/c2cccnc2)s1 | 100%
NC(=O)c1c(NC(=O)c2cnccn2)sc2c1CCCC2 | 100%
CC(=O)Nc1ccccc1C(=O)Nc1sc(C(C)c2ccccc2)cc1C(N)=O (stereo not drawn) | 100%
CC(C)c1cc(C(N)=O)c(NC(=O)C2CC3C=CC2C3)s1 (stereo not drawn) | 100%
CCCCC(C)(C)C(=O)Nc1sc(C(C)C)cc1C(N)=O | 100%
NC(=O)c1cc(-c2ccccc2)sc1NC(=O)c1ccc(Cl)cc1 | 100%
CC(C)C(=O)Nc1sc2c(c1C(N)=O)CCCC2 | 100%
CC(C)c1ccc(C(=O)Nc2sc(Cc3ccccc3)cc2C(N)=O)cc1 | 100%
COc1ccccc1C(=O)Nc1sc(-c2ccccc2)cc1C(N)=O | 100%
CC(c1ccccc1)c1cc(C(N)=O)c(NC(=O)c2ccc3ccccc3n2)s1 (stereo not drawn) | 100%
COc1cc(C(=O)Nc2sc(Cc3ccccc3)cc2C(N)=O)ccc1O | 100%
CC(C)c1cc(C(N)=O)c(NC(=O)CCNC(N)=O)s1 | 100%
CC(C)c1cc(C(N)=O)c(NC(=O)CC2CCCC2)s1 | 100%
NC(=O)c1c(NC(=O)c2ccc[nH]2)sc2c1CCCC2 | 100%
NC(=O)c1c(NC(=O)c2ccsc2)sc2c1CCCC2 | 100%
Cc1ccc(C(=O)Nc2sc3c(c2C(N)=O)CCCC3)cc1 | 100%
CC(C)c1cc(C(N)=O)c(NC(=O)Cc2cccs2)s1 | 100%
CC(c1ccccc1)c1cc(C(N)=O)c(NC(=O)c2ccc(Cl)cc2O)s1 (stereo not drawn) | 100%
COc1ccc(/C=C\C(=O)Nc2scc(C)c2C(N)=O)cc1OC | 100%
COc1cccc(/C=C\C(=O)Nc2scc(C)c2C(N)=O)c1OC | 100%
CCC(=O)Nc1sc2c(c1C(N)=O)CCCC2 | 100%

Structure (SMILES) | inhibition
CC(=O)N1CCC(O)C1C(=O)Nc1sc(C(C)c2ccccc2)cc1C(N)=O (stereo not drawn) | 100%
NC(=O)c1cc(-c2ccccc2)sc1NC(=O)C(F)c1ccccc1 (stereo not drawn) | 100%
Cc1cccc(C(=O)Nc2sc(C(C)C)cc2C(N)=O)c1C | 100%
COc1cccc(C(=O)Nc2sc(Cc3ccccc3)cc2C(N)=O)c1O | 100%
CC(=O)Nc1sc2c(c1C(N)=O)CCCC2 | 100%
NC(=O)c1c(NC(=O)c2cccnc2)sc2c1CCCC2 | 100%
Cc1cc(C(=O)Nc2sc3c(c2C(N)=O)CCCC3)no1 | 100%
CC(c1ccccc1)c1cc(C(N)=O)c(NC(=O)c2ccc3ccccc3c2)s1 (stereo not drawn) | 100%
Cc1csc(NC(=O)c2cc(-n3cccc3)ccc2O)c1C(N)=O | 100%
Cc1ccc(C(=O)Nc2sc(C(C)C)cc2C(N)=O)cc1C | 100%
NC(=O)c1c(NC(=O)c2cccc(O)c2)sc2c1CCCC2 | 100%
COc1cc(OC)c(C(=O)Nc2sc3c(c2C(N)=O)CCN(C)C3)c(OC)c1 | 100%
CC(C)c1cc(C(N)=O)c(NC(=O)c2cccc(C#N)c2)s1 | 100%
CN1CCc2c(sc(NC(=O)Cc3c[nH]c4ccc(F)cc34)c2C(N)=O)C1 | 100%
CN1CCc2c(sc(NC(=O)c3cc(O)c4cc(Cl)ccc4n3)c2C(N)=O)C1 | 100%
CC(=O)NC(=O)C(C)Nc1sc(C(C)C)cc1C(N)=O (stereo not drawn) | 100%
CN(C)c1ccccc1C(=O)Nc1sc(Cc2ccccc2)cc1C(N)=O | 100%
CN1CCc2c(sc(NC(=O)/C=C\C(=O)Nc3ccc(Cl)cc3)c2C(N)=O)C1 | 100%
COc1ccc(C(=O)Nc2sc(Cc3ccccc3)cc2C(N)=O)cc1O | 100%
COc1ccc(/C=C\C(=O)Nc2scc(C)c2C(N)=O)c(OC)c1 | 100%
COc1ccc(C)c(C(=O)Nc2sc(Cc3ccccc3)cc2C(N)=O)c1 | 100%
NC(=O)c1c(N2C(=O)CCC2C(N)=O)sc2c1CCCC2 (stereo not drawn) | 100%
